Numbered stars: 1 amine (or outer) side, 2 acyl side, 3 side chain; on linkers, the order of the positions; unused ones are H or OH. Bridge positions count the residues as written; N and C are the ends. Square brackets hold non-standard residues; d marks the D form. Ends that are not written are not given here. I, II: the chains in the order shown. * marks the point of attachment. ξ: configuration not given here. Succinimide(1-C2H4CO,3-yl) = O=C1CC([*:1])C(=O)N1CCC(=O)[*:2]; X4 = O=C(O)CC[C@H](NC(=O)CCN1C(=O)CC([*:1])C1=O)C(=O)[*:2]; X2 = O=C(O)CCC(NC(=O)CCN1C(=O)CC([*:2])C1=O)C(=O)[*:1]; Biotin = O=C1N[C@H]2[C@H](CS[C@H]2CCCCC(=O)*)N1; X3 = O=C1CC([*:2])C(=O)N1CCC(=O)[*:1]; X1 = O=C1NC2CSC(CCCCC(=O)*)C2N1; scaffold‑1 = not defined here; Pra = C#CC[C@H](N)C(=O)O; ξE = NC(CCC(=O)O)C(=O)O; AEEA = NCCOCCOCC(=O)O; ξK = NCCCCC(N)C(=O)O; ξS = NC(CO)C(=O)O
Tests used:
[1] = tested on: UV inactivated Influenza A PR/8/1934 H1N1; type: binding
[2] = tested on: UV inactivated Influenza A PR8/1934; type: binding
[3] = tested on: A/PR/8/34 H1N1 infected Madin-Darby Canine Kidney (MDCK) cells; experiment: Cytopathic effect assay (XTT), virus induced cell death; type: cell-based; conditions: read-out: IC50, inhibition of virus induced cell death
Description: The illustrated examples support the finding that synbodies inhibit the cytopathic effect of influenza on MDCK cells. Influenza binding peptides were conjugated to a bivalent scaffold (Sc1, as best shown in FIG. 2A) and screened for viral inhibition in an in vitro inhibition assay with A/PR/8/34 H1N1 infected Madin-Darby Canine Kidney (MDCK) cells.

[4] = tested on: hemagglutination of A/PR/8/34
[5] = biological target: T1, NP in A/PR/8/34 H1N1 viral lysate (Influenza A virus, UniProt P03466); type: binding
T1 construct: from tissue; host or cells: A/PR/8/34 H1N1 viral lysate

[6] = tested on: NP in A/Sydney/5/1997 H3N2 viral lysate; type: binding

T1 sequence (P03466 whole entry): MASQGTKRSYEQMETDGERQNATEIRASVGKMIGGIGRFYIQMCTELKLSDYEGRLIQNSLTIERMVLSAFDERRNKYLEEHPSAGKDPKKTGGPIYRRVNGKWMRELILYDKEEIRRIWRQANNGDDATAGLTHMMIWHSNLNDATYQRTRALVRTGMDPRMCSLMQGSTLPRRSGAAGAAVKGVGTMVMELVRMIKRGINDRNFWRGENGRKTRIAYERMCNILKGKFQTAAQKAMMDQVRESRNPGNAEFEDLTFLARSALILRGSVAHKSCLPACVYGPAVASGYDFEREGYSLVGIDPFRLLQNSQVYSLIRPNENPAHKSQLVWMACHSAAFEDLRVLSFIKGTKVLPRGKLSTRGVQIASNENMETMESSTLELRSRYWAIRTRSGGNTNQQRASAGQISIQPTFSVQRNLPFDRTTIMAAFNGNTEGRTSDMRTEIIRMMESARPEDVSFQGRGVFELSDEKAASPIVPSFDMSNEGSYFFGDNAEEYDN

Row | Substance | Fold Change versus WT Synbody [2] | further results
1 | CSGrMYpYrPFQGNHIYrKK (CSG[dR]MYPY[dR]PFQGNHIY[dR]KK; not fully specified (residue 7); printed as CSGrMYpYrPFQGNHIYrKK) [opt10] |  | fold improvement of optimized peptide over identified lead peptide [1]: approximately 1000 fold
2 | I: CSGDMYEYNPFQGNHIYNKK-NH2 / II: CSGDMYEYNPFQGNHIYNKK-NH2 / III: EKGSKSGK(Biotin)[Pra]-NH2 (linker I:1-III:2 via X4; linker II:1-III:N via Succinimide(1-C2H4CO,3-yl); C-terminus assumed) [P5-P5-Sc1] | 1 fold | IC50 [3]: ~2500 nM
3 | I: [ξE][ξK]G[ξS]G[ξS]G[AEEA][ξK](X1)IDKMPFETHRLGPGRFDGSG-NH2 / II: CSGDMYEYNPFQGNHIYNKK-NH2 / III: CSGDMYEYNPFQGNHIYNKK-NH2 (linker I:2-II:1 via X2; linker I:N-III:1 via X3) [P5-P5-Sc2] |  | inhibition of hemagglutination [4]: did not inhibit hemagglutination; pull-down of NP from lysate [5]: pulled-down NP from both lysates; pull-down of NP from lysate [6]: pulled-down NP from both lysates; IC50 (A/CA/7/2009 H1N1): 2500 nM; IC50 (A/Sydney/5/1997 H3N2): 2500 nM
4 | opt1-opt1: homo-bivalent synbody SEQ ID NO: 2-2 on scaffold-1 (chain 1 CSGDMYRYNPFQGNHIYNKK; chain 2 CSGDMYRYNPFQGNHIYNKK; linker (positions not given here) via scaffold‑1; reading uncertain; also: homo-bivalent on scaffold-1, attachment not given here) | 6 fold | 
5 | opt2-opt2: homo-bivalent synbody SEQ ID NO: 3-3 on scaffold-1 (chain 1 CSGRMYEYNPFQGNHIYNKK; chain 2 CSGRMYEYNPFQGNHIYNKK; linker (positions not given here) via scaffold‑1; reading uncertain; also: homo-bivalent on scaffold-1, attachment not given here) | 3 fold | 
6 | opt3-opt3: homo-bivalent synbody SEQ ID NO: 4-4 on scaffold-1 (chain 1 CSGDMYPYNPFQGNHIYNKK; chain 2 CSGDMYPYNPFQGNHIYNKK; linker (positions not given here) via scaffold‑1; reading uncertain; also: homo-bivalent on scaffold-1, attachment not given here) | n.b. | 
7 | opt4-opt4: homo-bivalent synbody SEQ ID NO: 5-5 on scaffold-1 (chain 1 CSGRMYPYNPFQGNHIYNKK; chain 2 CSGRMYPYNPFQGNHIYNKK; linker (positions not given here) via scaffold‑1; reading uncertain; also: homo-bivalent on scaffold-1, attachment not given here) | 10 fold | 
8 | opt5-opt5: homo-bivalent synbody SEQ ID NO: 6-6 on scaffold-1 (chain 1 CSGRMYRYNPFQGNHIYNKK; chain 2 CSGRMYRYNPFQGNHIYNKK; linker (positions not given here) via scaffold‑1; reading uncertain; also: homo-bivalent on scaffold-1, attachment not given here) | n.b. | 
9 | opt6-opt6: homo-bivalent synbody SEQ ID NO: 7-7 on scaffold-1 (chain 1 CSGDMYEYNPFQGNHIYRKK; chain 2 CSGDMYEYNPFQGNHIYRKK; linker (positions not given here) via scaffold‑1; reading uncertain; also: homo-bivalent on scaffold-1, attachment not given here) | 4 fold | 
10 | opt7-opt7: homo-bivalent synbody SEQ ID NO: 8-8 on scaffold-1 (chain 1 CSGRMYPYNPFQGNHIYRKK; chain 2 CSGRMYPYNPFQGNHIYRKK; linker (positions not given here) via scaffold‑1; reading uncertain; also: homo-bivalent on scaffold-1, attachment not given here) | 45 fold | 
11 | opt8-opt8: homo-bivalent synbody SEQ ID NO: 9-9 on scaffold-1 (chain 1 CSGTMYEYNPFQGNHIYNKK; chain 2 CSGTMYEYNPFQGNHIYNKK; linker (positions not given here) via scaffold‑1; reading uncertain; also: homo-bivalent on scaffold-1, attachment not given here) | 1 fold | 
12 | opt9-opt9: homo-bivalent synbody SEQ ID NO: 10-10 on scaffold-1 (chain 1 CSGRMYPYRPFQGNHIYRKK; chain 2 CSGRMYPYRPFQGNHIYRKK; linker (positions not given here) via scaffold‑1; reading uncertain; also: homo-bivalent on scaffold-1, attachment not given here) | 1 fold | 
13 | opt11-opt11: homo-bivalent synbody SEQ ID NO: 12-12 on scaffold-1 (chain 1 CSGTMYPYRPFQGNHIYRKK; chain 2 CSGTMYPYRPFQGNHIYRKK; linker (positions not given here) via scaffold‑1; reading uncertain; also: homo-bivalent on scaffold-1, attachment not given here) | 47 fold | 
14 | opt12-opt12: homo-bivalent synbody SEQ ID NO: 13-13 on scaffold-1 (chain 1 CSGRMYPYRPFQRKHIYRKK; chain 2 CSGRMYPYRPFQRKHIYRKK; linker (positions not given here) via scaffold‑1; reading uncertain; also: homo-bivalent on scaffold-1, attachment not given here) | n.b. | 
15 | opt13-opt13: homo-bivalent synbody SEQ ID NO: 14-14 on scaffold-1 (chain 1 CCSGDRYEYNPFQGKHIYNK; chain 2 CCSGDRYEYNPFQGKHIYNK; linker (positions not given here) via scaffold‑1; reading uncertain; also: homo-bivalent on scaffold-1, attachment not given here) | n.b. | 
16 | opt14-opt14: homo-bivalent synbody SEQ ID NO: 15-15 on scaffold-1 (chain 1 CSGRMYEYNPFQGKHIYRKK; chain 2 CSGRMYEYNPFQGKHIYRKK; linker (positions not given here) via scaffold‑1; reading uncertain; also: homo-bivalent on scaffold-1, attachment not given here) | 107 fold | 

Reference: patent US10011649B2 (priority 2013, dated 2018)
